Where only a bound is given, the exact number is not on record here.

The values that follow come from patent publication US10689383B2, “Optionally fused heterocyclyl-substituted derivatives of pyrimidine useful for the treatment of inflammatory, metabolic, oncologic and autoimmune diseases” (NUEVOLUTION A/S, priority 2014, dated 2020).

Assay [1] deals with T1, human RORγt (Ligand Binding Domain) (Homo sapiens, UniProt P51449).
T1 construct: purchased Crelux (Planegg, Germany) batch no PC5032-1
T1 sequence (P51449 269-508 limits assumed): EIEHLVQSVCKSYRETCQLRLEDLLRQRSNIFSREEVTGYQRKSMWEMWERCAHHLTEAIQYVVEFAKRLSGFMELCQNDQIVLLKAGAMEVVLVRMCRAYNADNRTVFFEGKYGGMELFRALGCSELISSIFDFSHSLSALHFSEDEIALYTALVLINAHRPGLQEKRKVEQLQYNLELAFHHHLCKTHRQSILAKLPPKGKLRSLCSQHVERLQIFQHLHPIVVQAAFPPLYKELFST
Put plainly: Fluorescence Polarization (FP) Assay. The following applies: Fluorescence Polarization (FP) Assay; values given as upper bounds of activity ranges; read-out: FP activity range. In a few lines: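 Binding to the ligand pocket followed by fluorescence polarization with a TAMRA-tagged RORγt ligand probe of 910 g/mole. Negative control wells received DMSO only.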

Assay [2] has as its target T2, yeast Gal4-DNA binding domain fused to the ligand binding domain of human RORγ (Homo sapiens, UniProt P51449).
T2 construct: host or cells: HEK293t
T2 sequence (P51449 269-508 limits assumed): T1 sequence (P51449 269-508 limits assumed)
Kind of assay: RORγ Reporter Assay (Gal4). The following applies: values given as lower bounds of ranges; for Gal4 activity range @ 1 μM (% inhibition): RORγ Reporter Assay (Gal4) at 1 μM; for Gal4 activity range @ 0.1 μM (% inhibition): RORγ Reporter Assay (Gal4) at 0.1 μM. The assay is classed as cell-based. In a few lines:
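Compound at final 1,000 or 100 nM (0.1% DMSO, triplicate) was added to the transfected HEK293t cells carrying a Gal4-UAS luciferase reporter for 24 h at 37 °C, 10% charcoal-stripped FBS. Activity reduction expressed as percent of vehicle-only luciferase signal.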

For the compound `COc1cccc(CNc2ncnc(N3CCCC3c3ccc(C(F)(F)F)cc3)c2F)c1OC` (centres unmarked) [Example 54, N-[(2,3-dimethoxyphenyl)methyl]-5-fluoro-6-[2-[4-(trifluoromethyl)phenyl]pyrrolidin-1-yl]pyrimidin-4-amine], in assay [1], the IC50 is under 1000 nM. Besides, the “Gal4 activity range @ 1 μM (% inhibition)” value in assay [2] is reported as over 50 % inhibition.

Take `Fc1c(NC[C@H]2CC[C@H](Cc3nnn[nH]3)CC2)ncnc1N1CCC[C@@H]1c1ccc(C(F)(F)F)cc1` [Example 190, 5-fluoro-N-[[4-(1H-tetrazol-5-ylmethyl)cyclohexyl]methyl]-6-[(2R)-2-[4-(trifluoromethyl)phenyl]pyrrolidin-1-yl]pyrimidin-4-amine]: the IC50 in assay [1] is under 500 nM. Also, in assay [2], the “Gal4 activity range @ 0.1 μM (% inhibition)” value was over 80 % inhibition and the “Gal4 activity range @ 1 μM (% inhibition)” value is over 80 % inhibition.

As to `CNC(=O)Cc1ccc(CNc2ncnc(N3CCC[C@@H]3c3ccc(C(F)(F)F)cc3)c2F)cc1` [Example 189, 2-[4-[[[5-fluoro-6-[(2R)-2-[4-(trifluoromethyl)phenyl]pyrrolidin-1-yl]pyrimidin-4-yl]amino]methyl]phenyl]-N-methyl-acetamide], the IC50 in assay [1] is under 500 nM. Also, the “Gal4 activity range @ 0.1 μM (% inhibition)” value in assay [2] is over 20 % inhibition.

On to `Cc1ccc(COc2ncnc(N3CCCC3c3ccc(C(F)(F)F)cc3)c2F)cn1` (centres unmarked) [Example 74, 5-fluoro-4-[(6-methyl-3-pyridyl)methoxy]-6-[2-[4-(trifluoromethyl)phenyl]pyrrolidin-1-yl]pyrimidine], for which the IC50 in assay [1] was under 2000 nM. Besides, the “Gal4 activity range @ 1 μM (% inhibition)” value in assay [2] is on record as over 80 % inhibition.

Regarding `CC1(CNc2ncnc(N3CCC[C@@H]3c3ccc(C(F)(F)F)cc3)c2F)CCCO1` (stereo partly drawn) [Example 199, 5-fluoro-N-[(2-methyltetrahydrofuran-2-yl)methyl]-6-[(2R)-2-[4-(trifluoromethyl)phenyl]pyrrolidin-1-yl]pyrimidin-4-amine], in assay [1], the IC50 is under 1000 nM. In addition, in assay [2], the “Gal4 activity range @ 0.1 μM (% inhibition)” value is reported as over 20 % inhibition and the “Gal4 activity range @ 1 μM (% inhibition)” value is recorded as over 80 % inhibition.

For `OCCC1(CNc2ncnc(N3CCOC[C@@H]3c3ccc(C(F)(F)F)cc3)c2F)CCOCC1` [Example 239, 2-[4-[[[5-fluoro-6-[(3S)-3-[4-(trifluoromethyl)phenyl]morpholin-4-yl]pyrimidin-4-yl]amino]methyl]tetrahydropyran-4-yl]ethanol], in assay [1], the IC50 was under 500 nM. In addition, in assay [2], the “Gal4 activity range @ 0.1 μM (% inhibition)” value was over 20 % inhibition and the “Gal4 activity range @ 1 μM (% inhibition)” value is given as over 80 % inhibition.

For the compound `NC(=O)CC1CCC(CNc2ncnc(N3CCOC[C@@H]3c3ccc(C(F)(F)F)cc3)c2F)CC1` (stereo partly drawn) [Example 206, 2-[4-[[[5-fluoro-6-[(3S)-3-[4-(trifluoromethyl)phenyl]morpholin-4-yl]pyrimidin-4-yl]amino]methyl]cyclohexyl] acetamide], the IC50 in assay [1] was under 1000 nM. In addition, in assay [2], the “Gal4 activity range @ 0.1 μM (% inhibition)” value is listed as over 20 % inhibition and the “Gal4 activity range @ 1 μM (% inhibition)” value is reported as over 80 % inhibition.

As to `CC1(c2ccc(C(F)(F)F)cc2)CCCN1c1ncnc(NCc2ccc(CC(N)=O)cc2)c1F` (centres unmarked) [Example 229, 2-[4-[[[5-fluoro-6-[2-methyl-2-[4-(trifluoromethyl)phenyl]pyrrolidin-1-yl]pyrimidin-4-yl]amino]methyl]phenyl]acetamide], in assay [1], the IC50 was under 500 nM. In assay [2], the “Gal4 activity range @ 0.1 μM (% inhibition)” value was over 50 % inhibition and the “Gal4 activity range @ 1 μM (% inhibition)” value was over 80 % inhibition.

`NC(=O)c1ccc(CNc2ncnc(N3CCC[C@@H]3c3ccc(C(F)(F)F)cc3)c2F)cc1` [Example 226, 4-[[[5-fluoro-6-[(2R)-2-[4-(trifluoromethyl)phenyl]pyrrolidin-1-yl]pyrimidin-4-yl]amino]methyl]benzamide]: the IC50 in assay [1] was under 10000 nM. Besides, in assay [2], the “Gal4 activity range @ 1 μM (% inhibition)” value is over 50 % inhibition.
